Assay results reported in patent US20050107386A1, “Methods of treating diseases and disorders by targeting multiple kinases” (priority 2003, published 2005).

Columns and labels:
GSK3β(h) = GSK3β(h) (Homo sapiens, UniProt P49841); test: GSK3β(h) kinase assay; assay type: biochemical; settings: 3 μM; percent of control kinase activity
Experimental: (§1) Six compounds (presumptive single agents) were tested against a panel of 50 kinases. The results are presented in Table 2; numbers for each kinase indicate the percent of control kinase activity in the presence of a 3μM concentration of the indicated agent.
(§2) Agents that target two or more different kinases are useful in the methods of the invention as described elsewhere herein. Such compounds may be identified, and their effect on certain kinases may be identified, using the assays briefly described below in Examples 4-83. Each of these assays was carried out as described in Davies et al., Biochem. J., 351:95-105 (2000). All assays were carried out at 10 μM ATP unless otherwise noted.
In a final reaction volume of 25 μl, GSK3β (h) (5-10 mU) is incubated with 8 mM MOPS pH 7.0, 0.2 mM EDTA, 20 μM […](p)EDEEE (phospho GS2 peptide; SEQ ID NO:3), 10 mM MgAcetate and [γ-^33P-ATP] (Specific activity approx. 500 cpm/pmol, concentration as required). The reaction is initiated by the addition of Mg^2+ [γ-^33P-ATP]. After incubation for 40 minutes at room temperature, the reaction is stopped by the addition of 5 μl of a 3% phosphoric acid solution. 10 μl of the reaction is then spotted onto a P30 filtermat and washed three times for 5 minutes in 50 mM phosphoric acid and once in methanol prior to drying and scintillation counting.

PKCμ(h) = target: T1, PKCμ(h) (Homo sapiens, UniProt Q15139); test: PKCμ(h) kinase assay; assay type: biochemical; settings: 3 μM; percent of control kinase activity
T1 sequence (Q15139 1-912): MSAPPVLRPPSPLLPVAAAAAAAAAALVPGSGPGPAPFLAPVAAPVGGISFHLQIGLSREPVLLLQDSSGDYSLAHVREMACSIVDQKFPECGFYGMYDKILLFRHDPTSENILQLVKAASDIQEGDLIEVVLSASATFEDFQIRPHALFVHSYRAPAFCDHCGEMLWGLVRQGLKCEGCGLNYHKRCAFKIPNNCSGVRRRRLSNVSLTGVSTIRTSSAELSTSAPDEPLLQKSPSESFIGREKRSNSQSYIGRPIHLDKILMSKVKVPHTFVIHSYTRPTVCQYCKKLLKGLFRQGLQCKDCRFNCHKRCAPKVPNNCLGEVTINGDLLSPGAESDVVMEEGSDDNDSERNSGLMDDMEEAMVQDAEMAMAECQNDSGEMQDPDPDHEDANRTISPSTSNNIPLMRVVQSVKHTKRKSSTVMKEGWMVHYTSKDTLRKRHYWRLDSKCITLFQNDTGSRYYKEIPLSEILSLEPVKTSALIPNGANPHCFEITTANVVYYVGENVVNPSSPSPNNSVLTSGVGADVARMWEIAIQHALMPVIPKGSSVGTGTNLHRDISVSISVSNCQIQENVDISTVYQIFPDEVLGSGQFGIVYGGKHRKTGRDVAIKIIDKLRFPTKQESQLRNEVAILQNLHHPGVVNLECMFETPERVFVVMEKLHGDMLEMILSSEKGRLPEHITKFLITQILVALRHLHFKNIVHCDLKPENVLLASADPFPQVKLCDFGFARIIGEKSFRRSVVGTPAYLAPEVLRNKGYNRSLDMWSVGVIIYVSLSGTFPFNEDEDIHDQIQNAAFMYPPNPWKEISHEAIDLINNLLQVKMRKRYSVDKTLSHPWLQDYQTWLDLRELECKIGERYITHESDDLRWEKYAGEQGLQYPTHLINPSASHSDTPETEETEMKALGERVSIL
Experimental: as §1, §2

SGK(h) = target: T2, SGK(h) (Homo sapiens, UniProt O00141); test: SGK(h) kinase assay; assay type: biochemical; settings: 3 μM; percent of control kinase activity
T2 sequence (O00141 1-431): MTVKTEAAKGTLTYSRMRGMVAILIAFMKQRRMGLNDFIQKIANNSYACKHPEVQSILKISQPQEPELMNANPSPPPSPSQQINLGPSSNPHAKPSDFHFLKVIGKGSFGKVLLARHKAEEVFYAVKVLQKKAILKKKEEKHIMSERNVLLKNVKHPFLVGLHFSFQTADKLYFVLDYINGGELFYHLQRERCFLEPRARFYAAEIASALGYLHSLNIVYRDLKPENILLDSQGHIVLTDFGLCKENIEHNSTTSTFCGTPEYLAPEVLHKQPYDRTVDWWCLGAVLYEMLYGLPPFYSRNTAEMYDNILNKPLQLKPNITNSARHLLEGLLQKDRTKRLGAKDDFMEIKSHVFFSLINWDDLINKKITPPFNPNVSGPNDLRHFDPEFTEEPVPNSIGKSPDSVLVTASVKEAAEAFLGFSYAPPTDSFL
Experimental: as §1, §2
In a final reaction volume of 25 μl, SGK(h) (5-10 mU) is incubated with 8 mM MOPS pH 7.0, 0.2 mM EDTA, 30 μM […] (SEQ ID NO:2), 10 mM MgAcetate and [γ-^33P-ATP] (specific activity approx. 500 cpm/pmol, concentration as required). The reaction is initiated by the addition of Mg^2+[γ-^33P-ATP]. After incubation for 40 minutes at room temperature, the reaction is stopped by the addition of 5 μl of a 3% phosphoric acid solution. 10 μl of the reaction is then spotted onto a P30 filtermat and washed three times for 5 minutes in 75 mM phosphoric acid and once in methanol prior to drying and scintillation counting.

[1] = system: HCT-116 colon cancer cells; test: Activation of kinases and their downstream targets in HCT-116 cells; assay type: cell-based; settings: concentration-dependent
Excerpt: (§3) CC001 is a low molecular weight mixed kinase inhibitor (MKI) with potent in vitro inhibitory activity against a variety of kinases.

[2] = system: cancer cell lines: non-small cell lung (NSCLC); colon; pancreatic; head and neck; breast and ovarian cancers; test: Antiproliferative activity against a broad spectrum of cancer cell lines; assay type: cell-based; settings: each of the cancer cell line types
Excerpt: as §3

colon and lung tumors = test: SCID mice bearing colon and lung tumors; assay type: in vivo, mouse; settings: 10 mg/kg to 20mg/kg twice a day, single agent
Experimental: SCID mice bearing colon and lung tumors were treated with CC001 at a concentration of 10 mg/kg to 20mg/kg, administered twice a day.

HCT-116 cells = test: SCID mouse/HCT-116 xenograft model; settings: for % Tumor Growth Inhibition / T/C (ratio of mean tumor volume for treated vs. vehicle control) / Tumor Volume: day 28; for Tumor Volume: mean ± SEM
Experimental: In one experiment, female CB.17 SCID mice were inoculated subcutaneously in the right hind limb with 2×10^6 HCT-116 cells. […] Treatment commenced on day 8 and proceeded for the duration of the study. All the compound treatments were given i.p. in a vehicle NPS in a volume of 5 ml/kg. […] The tumor volumes were measured twice a week using calipers. Values are mean±SEM. Statistical analysis was performed using ANOVA.
Female CB.17 SCID mice were inoculated subcutaneously in the right hind limb with 2×10^6 HCT-116 cells. […] Treatment commenced on day 8 and proceeded for the duration of the study. All the treatments were given i.p. in a vehicle NPS in a volume of 5 ml/kg.
Female CB.17 SCID mice were inoculated subcutaneously in the right hind limb with 2×10^6 HCT-116 cells. […] Treatment commenced on day 8 and proceeded for the duration of the study. All the compound treatments were given i.p. in a vehicle NPS in a volume of 5 ml/kg. […] The tumor volumes were measured twice a week using calipers.

[3] = CC001 with Camptosar, model not named
[4] = Table 4, i.p. 20 mg/kg b.i.d. (b.i.d. day 8-11, then qd)

GSK3β(h), sequence (P49841 whole entry): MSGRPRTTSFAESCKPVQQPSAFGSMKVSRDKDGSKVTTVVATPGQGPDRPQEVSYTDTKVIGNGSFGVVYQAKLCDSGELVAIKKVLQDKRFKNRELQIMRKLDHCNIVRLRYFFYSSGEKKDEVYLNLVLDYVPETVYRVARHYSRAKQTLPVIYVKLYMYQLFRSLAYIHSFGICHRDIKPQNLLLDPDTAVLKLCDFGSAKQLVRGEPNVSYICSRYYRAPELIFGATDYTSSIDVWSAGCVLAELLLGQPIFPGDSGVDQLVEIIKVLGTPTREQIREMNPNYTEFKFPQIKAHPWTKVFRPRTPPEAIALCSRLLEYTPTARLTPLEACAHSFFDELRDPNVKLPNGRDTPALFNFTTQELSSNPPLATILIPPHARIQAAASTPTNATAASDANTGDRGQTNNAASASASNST

With `COc1ccc2cc(-c3n[nH]c4ccc(-c5n[nH]c(CN6CCOCC6)n5)cc34)ccc2c1` [CC001, 3-(6-Methoxynaphthalen-2-yl)-5-(5-Morpholin-4-Ylmethyl-1H-[1,2,4]Triazol-3-yl)-1H-Indazole] the “Inhibitory activity (% of control), GSK3β(h)” value (GSK3β(h)) was 12 % of control, the “Inhibitory activity (% of control), PKCμ(h)” value (PKCμ(h)) was 6 % of control and the “Inhibitory activity (% of control), SGK(h)” value (SGK(h)) was 56 % of control. For the same compound, the “activation of kinases and their downstream targets” value [1] was “inhibited the activation of kinases and their downstream targets”, the “antiproliferative activity, IC50 values” [2] was “nanomolar range” and the T/C ratio (colon and lung tumors) was 40-60%. For the same compound, the “tumor growth, in words” value (colon and lung tumors) was “inhibited tumor growth in a dose-dependent manner”, the “effect on tumor development, in words” value (HCT-116 cells; CC001 at 20 mg/kg administered with 2.5 mg/kg Camptosar) was “equivalent to an administration of Camptosar alone at 10 mg/kg” and the T/C ratio (HCT-116 cells; [3]) was roughly 15%. The “in vivo effects in combination, in words” value (HCT-116 cells; [3]) was “Additive in vivo effects”, the “TGD (days to reach 1000 mm^3)” value (HCT-116 cells; Table 3, i.p. 20 mg/kg b.i.d.) was greater than 12 days and the “% Tumor Growth Inhibition” value (HCT-116 cells; Table 3, i.p. 20 mg/kg b.i.d.) was 69.6%. For the same compound, the “T/C (ratio of mean tumor volume for treated vs. vehicle control)” value (HCT-116 cells; Table 3, i.p. 20 mg/kg b.i.d.) was 32, the “Tumor Volume” value (HCT-116 cells; Table 3, i.p. 20 mg/kg b.i.d.) was 798.3 ± 71.1^e mm^3 and the “% Tumor Growth Inhibition” value (HCT-116 cells; Table 5, i.p. 20 mg/kg b.i.d.) was 69%. For the same compound, the “T/C (ratio of mean tumor volume for treated vs. vehicle control)” value (HCT-116 cells; Table 5, i.p. 20 mg/kg b.i.d.) was 34, the “Tumor Volume” value (HCT-116 cells; Table 5, i.p. 20 mg/kg b.i.d.) was 752.5 ± 66.6^e mm^3 and the “TGD (500 mm^3)” value (HCT-116 cells; Table 5, i.p. 20 mg/kg b.i.d., days to reach 500 mm^3) was greater than 7 days. The “TGD (1000 mm^3)” value (HCT-116 cells; Table 5, i.p. 20 mg/kg b.i.d., days to reach 1000 mm^3) was greater than 10 days and the “tumor mass over the course of the experiment, in words” value (HCT-116 cells; i.p. 20 mg/kg b.i.d., P<0.001 compared to vehicle control) was “significantly smaller tumor mass”.
In the case of `CC(C)Cc1nc(-c2ccc3[nH]nc(-c4ccc5cc(OCCN6CCCC6)ccc5c4)c3c2)n[nH]1` [CC002, 5-(5-Isobutyl-1H-[1,2,4]Triazol-3-yl)-3-[6-(2-Pyrrolidin-1-yl-Ethoxy)-Naphthalen-2-yl]-1H-Indazole], the “TGD (days to reach 1000 mm^3)” value (HCT-116 cells; [4]) is reported as greater than 12 days, the “% Tumor Growth Inhibition” value (HCT-116 cells; [4]) is reported as 68% and the “T/C (ratio of mean tumor volume for treated vs. vehicle control)” value (HCT-116 cells; [4]) is reported as 35. For the same compound, the “Tumor Volume” value (HCT-116 cells; [4]) was 792.8 ± 86.5^e mm^3 and the “tumor volumes over the course of the experiment, in words” value (HCT-116 cells; i.p. 20 mg/kg b.i.d. day 8-11, then qd, P<0.001 vs vehicle control) was “reduced tumor volumes”.
In the case of `CC(C)(C)Cc1nc(-c2ccc3[nH]nc(-c4ccc5cc(OCc6ccccn6)ccc5c4)c3c2)n[nH]1` [CC004, 5-[5-(2,2-Dimethyl-propyl)-1H-[1,2,4]triazol-3-yl]-3-[6-(pyridine-2-ylmethoxy)-naphthalen-2-yl]-1H-indazole], the “Inhibitory activity (% of control), GSK3β(h)” value (GSK3β(h)) is reported as 63 % of control, the “Inhibitory activity (% of control), PKCμ(h)” value (PKCμ(h)) is reported as 34 % of control and the “Inhibitory activity (% of control), SGK(h)” value (SGK(h)) is reported as 33 % of control.
In the case of `CCN1CCC[C@H]1COc1ccc2cc(-c3n[nH]c4ccc(-c5nc(CC(C)(C)C)n[nH]5)cc34)ccc2c1` [CC005, 2-[((2s)-1-ethylpyrrolidin-2-yl)methoxy]-6-{5-[3-(2,2-Dimethylpropyl)(1H-1,2,4,-triazol-5-yl)](1H-indazol-3-yl)}naphthalene], the “Inhibitory activity (% of control), GSK3β(h)” value (GSK3β(h)) is reported as 34 % of control, the “Inhibitory activity (% of control), PKCμ(h)” value (PKCμ(h)) is reported as 2 % of control and the “Inhibitory activity (% of control), SGK(h)” value (SGK(h)) is reported as 4 % of control.
